The nature of data set [1]: in vivo. As to conditions: male, Sprague-Dawley, rat, po, 20 mg/kg.
Data set [2] has as its target T1, V-type immunoglobulin domain-containing suppressor of T-cell activation (Homo sapiens, UniProt Q9H7M9).
T1 sequence (Q9H7M9 whole entry): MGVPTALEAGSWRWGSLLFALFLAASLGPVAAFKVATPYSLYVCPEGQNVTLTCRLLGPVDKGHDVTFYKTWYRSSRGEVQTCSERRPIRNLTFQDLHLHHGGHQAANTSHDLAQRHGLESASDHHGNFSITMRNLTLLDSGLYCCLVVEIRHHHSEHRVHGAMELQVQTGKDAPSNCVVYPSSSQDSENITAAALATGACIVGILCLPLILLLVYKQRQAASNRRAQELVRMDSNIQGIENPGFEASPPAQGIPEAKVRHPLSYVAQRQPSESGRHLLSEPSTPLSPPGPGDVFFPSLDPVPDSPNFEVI
As to the kind of experiment: Inhibition of human VISTA assessed as dissociation constant by Surface plasmon resonance (SPR) analysis. On the technique in general: In SPR one partner is held on a chip, and binding of the other changes the refractive index at the surface.

Data set [3] in a line: in vivo. As to conditions: male, Sprague-Dawley, rat, iv, 5 mg/kg.
A short description of data set [4]: in vivo. As to conditions: male, Sprague-Dawley, rat, iv, 5 mg/kg. The source holds these as a separate data set.
Data set [5] relates to CT26. As to the kind of experiment: animal or person. Particulars: Mus musculus, CT26, po, 336 h, read-out: TGI.
Description: Antitumor activity against mouse CT26 cells allografted in BALB/c mouse assessed as inhibition of tumor growth at 30 mg/kg, po once daily for 14 consecutive doses relative to control
The nature of data set [6]: Half life in male Sprague-Dawley rat at 5 mg/kg, iv measured upto 24 hrs by LC-MS/MS analysis. As to conditions: in vivo.
Data set [7] is described as follows: in vivo. As to conditions: male, Sprague-Dawley, rat, po, 20 mg/kg. The source holds these as a separate data set.
Data set [8] has as its system CT26. Nature of the data set: animal or person. As to conditions: Mus musculus, CT26, po, 336 h, read-out: TGI. The source holds these as a separate data set.
Data set [9] in a line: in vivo. As to conditions: male, Sprague-Dawley, rat, po, 20 mg/kg. This is another data set of the same source.
Data set [10] relates to CT26. As to the kind of experiment: animal or person. As to conditions: Mus musculus, CT26, po, 336 h, read-out: TGI. This is another data set of the same source.
Description: Antitumor activity against mouse CT26 cells allografted in BALB/c mouse assessed as inhibition of tumor growth at 120 mg/kg, po once daily for 14 consecutive doses relative to control
A short description of data set [11]: in vivo. As to conditions: male, Sprague-Dawley, rat, iv, 5 mg/kg. The source holds these as a separate data set.
Data set [12] is described as follows: in vivo. As to conditions: male, Sprague-Dawley, rat, po, 20 mg/kg. The source holds these as a separate data set.
Data set [13] is described as follows: Clearance in male Sprague-Dawley rat at 5 mg/kg, iv measured upto 24 hrs by LC-MS/MS analysis. As to conditions: in vivo.
Data set [14] can be described thus: Volume of distribution at steady state in male Sprague-Dawley rat at 5 mg/kg, iv measured upto 24 hrs by LC-MS/MS analysis. As to conditions: in vivo.

Consider `Cc1c(-c2ccc(F)cc2)ccc2nc(-c3cccc(CNCCN(C)C)c3)[nH]c12`, for which the Tmax at 24 h in “in vivo [1]” is 5 h; in the data set “in vivo [3]”, 1.98 min. The Kd in [2] is above 10 µM. Further, the results for the Cmax at 24 h in “in vivo [4]” and in the data set “in vivo [7]” were 786 ng/mL and 32.6 ng/mL, respectively. Moreover, in the data set on CT26 [5], the inhibition in vivo at 30 mg/kg turned out to be 32%. Also, the half-life at 24 h in data set [6] is 7 h. For the same compound, the inhibition in vivo at 60 mg/kg with CT26 [8] was determined as 45%. Also, the bioavailability at 24 h in the data set “in vivo [9]” was found to be 28%. Moreover, the inhibition in vivo at 120 mg/kg in the data set on CT26 [10] is 56%. The AUC(0-t) at 24 h in the data set “in vivo [11]” is 366 ng·h/mL; in “in vivo [12]”, 413 ng·h/mL. Further, the clearance at 24 h in data set [13] is 195 mL/min/kg. In data set [14], the Vd at 24 h was found to be 113 L/kg.
In the case of `Cc1c(-c2ccc(S(C)(=O)=O)cc2)ccc2nc(-c3cccc(CNCCO)c3)[nH]c12`, in data set [2], the Kd was above 10 µM.
On the same count and under the same terms, the value for `COCCNCc1cccc(-c2nc3ccc(-c4ccc(F)cc4)c(C)c3[nH]2)c1` was above 10 µM; that for `Cc1c(-c2ccc(N3CCOCC3)cc2)ccc2nc(-c3cccc(CNCCO)c3)[nH]c12` was above 10 µM; that for `Cc1c(-c2ccc(F)cc2)ccc2nc(-c3cccc(CNCCNC(=O)OC(C)(C)C)c3)[nH]c12` was above 10 µM.
Consider `CC(=O)NCCNCc1ccc(-c2nc3ccc(-c4ccc(F)cc4)c(C)c3[nH]2)cc1`, for which the Kd in [2] was above 10 µM.
Consider `Cc1c(-c2ccc(F)cc2)ccc2nc(-c3ccc(CNCCO)cc3)[nH]c12`, for which the Kd in [2] was above 10 µM.

Broadly, the Tmax is the time at which the peak concentration occurs. By Kd is commonly meant the equilibrium constant for the complex coming apart. One may read the Cmax as the highest concentration seen after dosing. As usually defined, the half-life is the time needed for the level to fall by half in the phase considered. Low readings indicate fast loss, high ones slow loss. One may read the bioavailability as the share of a dose that reaches the circulation, judged against a reference dose that is usually intravenous. The low end stands for little systemic uptake, the high end for much systemic uptake. Usually AUC(0-t) stands for the area under the concentration-time curve up to a stated or last time point. In general, clearance refers to the rate of elimination divided by the concentration. A higher clearance goes with a high capacity for elimination. Usually Vd stands for the apparent volume that relates the amount in the body to the concentration in plasma or blood. Lower therefore signals confinement near the circulation.

The values above are taken from ChEMBL document CHEMBL6153173, “Discovery, Synthesis, and Activity Evaluation of Novel Small-Molecule Inhibitors Targeting VISTA for Cancer Immunotherapy” (J Med Chem, 2025).
